Measurements from patent US20190382432A1 (Synbias Pharma AG, priority 2013, published 2019).
Counter-ions that a name gives are not always drawn. Marks after values point to notes of the source that are not given here.

Assays:
Type in all cases: physicochemical
[1] = Hygroscopic capacity: water content by Karl-Fischer titration after exposure to temperature and relative humidity; conditions: 25 or 40 °C, 40-90% rh, up to 15 days
Protocol: Coulometric Karl-Fischer titration (KFT; for determining the water content) was performed with an external drying oven (Metrohm 707 KF; operated at 140° C. with N2 purge). The samples were precisely weighed on an analytical balance (10^−5 g).
The testing was performed as described in the ICH guidelines.

[2] = Thermostability on storage at 25, 40 and 100 °C per ICH Q1A (R2), HPLC
Protocol: HPLC and GC analyses were performed according to standard protocols.
The testing was performed as described in the ICH guidelines (cf. inter alia ICH Guideline Q1A (R2)).

[3] = Particle size distribution by laser diffraction analysis (Mastersizer 2000); conditions: wet laser diffraction in acetone; listed as Sample 2, hydrochloride
Protocol: Laser diffraction analysis was performed in form of wet laser diffraction in acetone: 1750 rpm, 3×20 s cycle time, 60 s background time, without sonication, and 5 min stirring time using a Mastersizer 2000 Particle Size Analyzer (Malvern Instruments Ltd., Malvern, UK) according to the manufacturer's instructions.

[4] = Thermostability under stress conditions (storage at 100 °C for one month), HPLC
Protocol: Sample S was prepared according to the present invention, as described in Example 3 above. Sample M1 was prepared according to Example 1 of WO 2012/163508 A1, as described in Example 7 above. Finally, Sample M2 was prepared according to Example 2 of WO 2012/163508 A1, as described in Example 7 above.
The samples were exposed to a temperature of 100° C. for the time period (in weeks) indicated. The testing was performed as described in the ICH Guideline Q1A (R2) (cf. above). The amount of the degradation product (i.e. doxorubicinone) produced as well as those of various impurities (i.e., doxorubicin and four different impurities of yet unknown identity; all given in % (w/w); “n.d.”=not determined) was determined by HPCL analysis (“LT”=less than).

[5] = 25 °C, 12 months, hydrochloride
[6] = 25 °C, 24 months, hydrochloride
[7] = 100 °C, 0 months, hydrochloride

For `COc1cccc2c1C(=O)c1c(O)c3c(c(O)c1C2=O)C[C@@](O)(C(=O)CO)C[C@@H]3O[C@H]1C[C@H](N)[C@H](O)[C@H](C)O1` [epirubicin hydrochloride monohydrate, epirubicin hydrochloride], the “Hygroscopic capacity, in words” value [1] was “does not exhibit any significant hygroscopic capacity”, the “Stability over a time period (overall shelf-life)” value ([2]; 25 °C) was ≥ 5 years and the Doxorubicinone ([2]; 25 °C, 0 months) was “LT 0.05 % (w/w)”. The “Assay (intact epirubicin hydrochloride)” value ([2]; 25 °C, 0 months, hydrochloride) was 99.2 % (w/w), the “Assay (intact epirubicin hydrochloride)” value ([2]; 25 °C, 1 month, hydrochloride) was 99.4 % (w/w) and the Doxorubicinone ([2]; 25 °C, 1 month, hydrochloride) was “LT 0.05 % (w/w)”. For the same compound, the “Assay (intact epirubicin hydrochloride)” value ([2]; 25 °C, 3 months, hydrochloride) was 99.4 % (w/w), the Doxorubicinone ([2]; 25 °C, 3 months, hydrochloride) was “LT 0.05 % (w/w)” and the “Assay (intact epirubicin hydrochloride)” value ([2]; 25 °C, 6 months, hydrochloride) was 99.2 % (w/w). For the same compound, the Doxorubicinone ([2]; 25 °C, 6 months, hydrochloride) was “LT 0.05 % (w/w)”, the “Assay (intact epirubicin hydrochloride)” value [2, 5] was 99.0 % (w/w) and the Doxorubicinone [2, 5] was “LT 0.05 % (w/w)”. The “Assay (intact epirubicin hydrochloride)” value [2, 6] was 99.4 % (w/w), the Doxorubicinone [2, 6] was “LT 0.05 % (w/w)” and the “Assay (intact epirubicin hydrochloride)” value ([2]; 25 °C, 36 months) was 99.1 % (w/w). For the same compound, the Doxorubicinone ([2]; 25 °C, 36 months) was “LT 0.05 % (w/w)”, the “Assay (intact epirubicin hydrochloride)” value ([2]; 25 °C, 48 months) was 99.1 % (w/w) and the Doxorubicinone ([2]; 25 °C, 48 months) was “LT 0.05 % (w/w)”. For the same compound, the “Assay (intact epirubicin hydrochloride)” value ([2]; 25 °C, 60 months) was 99.2 % (w/w), the Doxorubicinone ([2]; 25 °C, 60 months) was “LT 0.05 % (w/w)” and the “Stability over a time period (thermostability)” value ([2]; 40 °C) was ≥ 6 months. The Doxorubicinone ([2]; 40 °C, 0 months) was “LT 0.05 % (w/w)”, the “Assay (intact epirubicin hydrochloride)” value ([2]; 40 °C, 0 months, hydrochloride) was 99.2 % (w/w) and the “Assay (intact epirubicin hydrochloride)” value ([2]; 40 °C, 1 month, hydrochloride) was 99.2 % (w/w). For the same compound, the Doxorubicinone ([2]; 40 °C, 1 month, hydrochloride) was “LT 0.05 % (w/w)”, the “Assay (intact epirubicin hydrochloride)” value ([2]; 40 °C, 3 months, hydrochloride) was 99.1 % (w/w) and the Doxorubicinone ([2]; 40 °C, 3 months, hydrochloride) was “LT 0.05 % (w/w)”. The “Assay (intact epirubicin hydrochloride)” value ([2]; 40 °C, 6 months, hydrochloride) was 99.3 % (w/w), the Doxorubicinone ([2]; 40 °C, 6 months, hydrochloride) was “LT 0.05* % (w/w)” and the Doxorubicinone ([2]; 100 °C, 0 months) was “LT 0.05 % (w/w)”. The “Assay (intact epirubicin hydrochloride)” value [2, 7] was 99.2 % (w/w), the “Assay (intact epirubicin hydrochloride)” value ([2]; 100 °C, 1 month, hydrochloride) was 98.3 % (w/w) and the Doxorubicinone ([2]; 100 °C, 1 month, hydrochloride) was “LT 0.5** % (w/w)”. The Doxorubicinone ([2]; 100 °C, 1 month, listed as crystalline monohydrate of epirubicin hydrochloride, hydrochloride) was “less than 0.5 % (w/w)”.

For `COc1cccc2c1C(=O)c1c(O)c3c(c(O)c1C2=O)C[C@@](O)(C(=O)CO)C[C@@H]3O[C@H]1C[C@H](N)[C@H](O)[C@H](C)O1` [epirubicin hydrochloride trihydrate, epirubicin hydrochloride], the Doxorubicinone ([2]; 25 °C, 0 months) was “LT 0.05 % (w/w)”, the “Assay (intact epirubicin hydrochloride)” value ([2]; 25 °C, 0 months, hydrochloride) was 98.8 % (w/w) and the “Assay (intact epirubicin hydrochloride)” value ([2]; 25 °C, 1 month, hydrochloride) was 98.7 % (w/w). For the same compound, the Doxorubicinone ([2]; 25 °C, 1 month, hydrochloride) was 0.06 % (w/w), the “Assay (intact epirubicin hydrochloride)” value ([2]; 25 °C, 3 months, hydrochloride) was 98.7 % (w/w) and the Doxorubicinone ([2]; 25 °C, 3 months, hydrochloride) was 0.09 % (w/w). The “Assay (intact epirubicin hydrochloride)” value ([2]; 25 °C, 6 months, hydrochloride) was 98.4 % (w/w), the Doxorubicinone ([2]; 25 °C, 6 months, hydrochloride) was 0.22 % (w/w) and the “Assay (intact epirubicin hydrochloride)” value [2, 5] was 98.5 % (w/w). For the same compound, the Doxorubicinone [2, 5] was 0.42 % (w/w), the “Assay (intact epirubicin hydrochloride)” value [2, 6] was 98.0 % (w/w) and the Doxorubicinone [2, 6] was 0.62 % (w/w). The Doxorubicinone ([2]; 40 °C, 0 months) was “LT 0.05 % (w/w)”, the “Assay (intact epirubicin hydrochloride)” value ([2]; 40 °C, 0 months, hydrochloride) was 98.8 % (w/w) and the “Assay (intact epirubicin hydrochloride)” value ([2]; 40 °C, 1 month, hydrochloride) was 98.4 % (w/w). For the same compound, the Doxorubicinone ([2]; 40 °C, 1 month, hydrochloride) was 0.22 % (w/w), the “Assay (intact epirubicin hydrochloride)” value ([2]; 40 °C, 3 months, hydrochloride) was 98.2 % (w/w) and the Doxorubicinone ([2]; 40 °C, 3 months, hydrochloride) was 0.45 % (w/w). For the same compound, the “Assay (intact epirubicin hydrochloride)” value ([2]; 40 °C, 6 months, hydrochloride) was 98.0 % (w/w), the Doxorubicinone ([2]; 40 °C, 6 months, hydrochloride) was 0.78* % (w/w) and the Doxorubicinone ([2]; 100 °C, 0 months) was “LT 0.05 % (w/w)”. For the same compound, the “Assay (intact epirubicin hydrochloride)” value [2, 7] was 98.8 % (w/w), the “Assay (intact epirubicin hydrochloride)” value ([2]; 100 °C, 1 month, hydrochloride) was 89.5 % (w/w) and the Doxorubicinone ([2]; 100 °C, 1 month, hydrochloride) was 4.7** % (w/w). For the same compound, the “Degradation on storage, in words” value ([2]; within six months storage at 25 °C) was “significant degradation”.

With `COc1cccc2c1C(=O)c1c(O)c3c(c(O)c1C2=O)C[C@@](O)(C(=O)CO)C[C@@H]3O[C@H]1C[C@H](N)[C@H](O)[C@H](C)O1` [Example M2, epirubicin hydrochloride] the “D(v/0.5), mean diameter based on the volume of the particles” value [3] was 9.04 μm, the “Doxorubicin (NMT 1%)” value ([4]; 0 weeks) was 0.29 % (w/w) and the “Doxorubicinone (Aglycone) (NMT 1%)” value ([4]; 0 weeks) was < 0.05 % (w/w). The “Total Impurities (NMT 2%)” value ([4]; 0 weeks) was 0.30 % (w/w), the “Doxorubicin (NMT 1%)” value ([4]; 1 week, hydrochloride) was 0.27 % (w/w) and the “Doxorubicinone (Aglycone) (NMT 1%)” value ([4]; 1 week, hydrochloride) was 0.54 % (w/w). For the same compound, the “Total Impurities (NMT 2%)” value ([4]; 1 week, hydrochloride) was 1.30 % (w/w), the “Unknown impurity RRT 1.2 (NMT 0.15%)” value ([4]; 1 week, hydrochloride) was 0.12 % (w/w) and the “Unknown impurity RRT 1.6 (NMT 0.15%)” value ([4]; 1 week, hydrochloride) was 0.12 % (w/w). For the same compound, the “Unknown impurity RRT 1.7 (NMT 0.15%)” value ([4]; 1 week, hydrochloride) was 0.14 % (w/w), the “Doxorubicin (NMT 1%)” value ([4]; 2 weeks) was 0.32 % (w/w) and the “Doxorubicinone (Aglycone) (NMT 1%)” value ([4]; 2 weeks, hydrochloride) was 0.59 % (w/w). The “Total Impurities (NMT 2%)” value ([4]; 2 weeks, hydrochloride) was 1.70 % (w/w), the “Unknown impurity RRT 1.1 (NMT 0.15%)” value ([4]; 2 weeks, hydrochloride) was 0.14 % (w/w) and the “Unknown impurity RRT 1.2 (NMT 0.15%)” value ([4]; 2 weeks, hydrochloride) was 0.12 % (w/w). For the same compound, the “Unknown impurity RRT 1.6 (NMT 0.15%)” value ([4]; 2 weeks, hydrochloride) was 0.21 % (w/w), the “Unknown impurity RRT 1.7 (NMT 0.15%)” value ([4]; 2 weeks, hydrochloride) was 0.18 % (w/w) and the “Doxorubicin (NMT 1%)” value ([4]; 3 weeks, hydrochloride) was 0.32 % (w/w). For the same compound, the “Doxorubicinone (Aglycone) (NMT 1%)” value ([4]; 3 weeks, hydrochloride) was 0.61 % (w/w), the “Total Impurities (NMT 2%)” value ([4]; 3 weeks, hydrochloride) was 1.80 % (w/w) and the “Unknown impurity RRT 1.1 (NMT 0.15%)” value ([4]; 3 weeks, hydrochloride) was 0.13 % (w/w). The “Unknown impurity RRT 1.2 (NMT 0.15%)” value ([4]; 3 weeks, hydrochloride) was 0.13 % (w/w), the “Unknown impurity RRT 1.6 (NMT 0.15%)” value ([4]; 3 weeks, hydrochloride) was 0.27 % (w/w) and the “Unknown impurity RRT 1.7 (NMT 0.15%)” value ([4]; 3 weeks, hydrochloride) was 0.22 % (w/w). The “Doxorubicin (NMT 1%)” value ([4]; 4 weeks) was 0.33 % (w/w), the “Doxorubicinone (Aglycone) (NMT 1%)” value ([4]; 4 weeks, hydrochloride) was 0.60 % (w/w) and the “Total Impurities (NMT 2%)” value ([4]; 4 weeks, hydrochloride) was 2.1* % (w/w). The “Total amount of unknown impurities” value ([4]; 4 weeks, hydrochloride) was 1.1 % (w/w), the “Unknown impurity RRT 1.1 (NMT 0.15%)” value ([4]; 4 weeks, hydrochloride) was 0.21 % (w/w) and the “Unknown impurity RRT 1.2 (NMT 0.15%)” value ([4]; 4 weeks, hydrochloride) was 0.16 % (w/w). For the same compound, the “Unknown impurity RRT 1.6 (NMT 0.15%)” value ([4]; 4 weeks, hydrochloride) was 0.39 % (w/w) and the “Unknown impurity RRT 1.7 (NMT 0.15%)” value ([4]; 4 weeks, hydrochloride) was 0.26 % (w/w).
